Laboratory results reported in patent US5776957A, “Nornicotine enantiomers for use as a treatment for dopamine related conditions and disease states” (The University of Kentucky Research Foundation, priority 1996, dated 1998).
Entries after “also recorded” stand apart in the source; their conditions may differ. Like-named read-outs stand apart in the source and are kept apart here.

Columns and labels:
[1] = system: mouse striatal synaptosomes; conditions: Grady et al., 1992, cited from earlier work
[2] = NIC and metabolites in rat brain after s.c. injection of radiolabelled NIC; type: in vivo
Description: NIC metabolism studies involving HPLRC analysis invariably utilize NIC with a radiolabel (i.e., [^3 H], [^14 C] or [^11 C]) incorporated in the methyl group. However N-demethylated NIC metabolites (norNIC and norCOT) cannot be detected after injection of such radionuclides, since the label is lost in the formation of these metabolites. NIC and four NIC metabolites have recently been detected in rat brain 4 hr after s.c. injection of [2'-^14 C]NIC (FIG. 3, Table I). Three of these metabolites have been identified as COT, norNIC and norCOT. A fourth minor metabolite (Peak B) has not been completely identified but appears to be an N-demethylated metabolite, since it is not detected in the [^3 H-N-methyl]NIC studies.
COT, and therefore, is unlikely to originate from COT N-demethylation. 3-HydroxyCOT and its glucuronide conjugate were not detected as metabolites of either NIC or COT in brain, even though these are major biotransformation products in the periphery (Crooks, 1993).
It appears that NIC metabolites which accumulate with a time course that correlates with the development of behavioral sensitization to NIC have a role in eliciting sensitization to NIC. The inventors have detected NIC, COT, norNIC and norCOT in brain 4 hr following acute s.c. injection of (±)[2'-^14 C]NIC. S(-) [^3 H] -N-methyl]NIC is unsuitable for studying brain metabolism of NIC, since nor-metabolites (i.e., demethylated metabolites) cannot be detected due to [^3 H]-loss during metabolism (Crooks et al., 1995b, AP 7). Thus, commercially available (±)[2'-^14 C]NIC was used to determine NIC metabolites present in brain. This form of radiolabelled NIC provides a metabolically stable [^14 C]-label which allows measurement of all potential NIC metabolites.
A second "metabolite" (Peak A, FIG. 2) was also detected at each time point and most likely results from a combination of metabolic cleavage of the N-methyl group and dissociated-[^3 H], i e, Peak A represents an oxidized 1-carbon unit and indicates the extent of NIC N-demethylation. Note, in our subsequent studies with [2'-^14 C]NIC, Peak A was not observed, which is consistent with our interpretation of the results (Table 1).

[3] = system: [3H]DA-preloaded rat striatal slices (nicotinic receptors); assay: [3H]overflow (DA release) from [3H]DA-preloaded rat striatal slices; type: cell-based
Procedure: In vitro pharmacological effects of NIC are generally investigated using either striatal slices or synaptosome preparations preloaded with [^3 H] DA. NIC-evoked [^3 H]overflow is obtained routinely in the presence of nomifensine (10 μM; a DA uptake inhibitor) and for pargyline (10 μM, a monoamine oxidase inhibitor) in the superfusion buffer, such that [^3 H]overflow represents primarily [^3 H]DA rather than [H]DA-metabolites (Zumstein et al., 1981, Hoffmann and Cubeddu, 1982, Dwoskin and Zahniser, 1986, Rapier et al., 1988), and for this reason, [^3 H]overflow also will be referred to as [^3 H] DA release in the proposal.
The present studies use striatal slices superfused with various concentrations of NIC or norNIC for prolonged periods.
FIG. 4. […] Insets illustrate the response to the low concentration range. […] NIC exposure indicated by the bar under time course. Note: 1-min sample collection period. […] N=4 rats.
Rat striatal slices were depolarized with 10 μM NIC, 20 mM K+or 1 Hz, 60 pulses or 3 Hz, 180 pulses electrical field stimulation. […] N=4.
MEC or DHβE was included in the superfusion buffer for 60 min prior to the addition of NIC, and superfusion continued for 60 min in the presence of NIC+antagonist.

[4] = Amphetamine drug discrimination (substitution tests); type: in vivo, rat
Procedure: Rats were trained in on two-lever food-reinforced operant tasks to discriminate amphetamine (1 mg/kg) from saline. After discrimination training stabilized, test doses of amphetamine (0.0625-2.0 mg/kg), nicotine (0.1-1.0 mg/kg) or nornicotine (1-10 mg/kg) were assessed for their ability to substitute for the amphetamine training dose during brief test sessions in which food reinforcement was withheld.
Nine male Sprague-Hawley rats were obtained from Harlan Industries (Indianapolis, Ind.) and were caged individually with water continuously available. Food access was restricted in order to maintain body weights at approximately 80% of free-feeding weight. Prior to the start of the experiment, all rats received a single injection of amphetamine (1 mg.kg, IP) as part of an unrelated experiment. Apparatus Six operant chambers (ENV-001, Med Associates, St. Albans, Vt.) enclosed in a sound attenuating environment were used. Located in the bottom center of the front panel in each chamber was a 5×4.-cm opening to a recessed food tray. Two metal response levers were located on the front panel, one on each side of the food tray. The center of each lever was mounted 7.3 cm from the grid floor. A 28-Vcue light, 3 cm in diameter, was centered 6 cm above each lever. A personal computer, interfaced to the chamber with Med Associates equipment, controlled the experimental sessions and collected data.
The general procedures utilized to establish amphetamine discrimination were similar to those outlined previously (13). Briefly, rats were first given access to food pellets (45 mg sucrose pellet, Noyes Co., Lancaster, N.H.) dispensed noncontingently into the food tray with both levers present. One lever was then removed and the rat was shaped to depress the other lever for food reinforcement. Following this, rats received 15-min daily sessions in which the lever (left or right) available for food reinforcement was alternated daily. […] The start of each session was signaled by the onset of both cue lights mounted above the levers, and the termination of each session was signaled by the offset of these lights. This training phase was continued until the rat earned 20 reinforces on an FR25 schedule for two days.
Amphetamine discrimination training was conducted Monday through Friday. For this training, both levers were mounted in the chamber. Amphetamine (A; 1 mg/kg) or saline (S), was injected IP 15 min prior to the start of the session, with the order of injections being either AASS or SSAA. The left lever was designated as the amphetamine-correct lever for 4 rats, while the right lever was amphetamine -correct for 5 rats. On Monday, Wednesday and Friday, injection-appropriate responding was food-reinforcedon an FR25 schedule for the entire 15-min session. However, 2-min extinction periods were instituted at the beginning of sessions on Tuesday and Thursday (one amphetamine and one saline test per week) to assess the control of amphetamine (or saline) over responding. […] During the remaining 13 min of these sessions, contingent reinforcement for injection-appropriate responding was reinstated. This phase of training was continued until the rat completed the first FR25 on the correct lever for 10 consecutive sessions and also completed 80% or more responses on the injection-appropriate lever during 4 consecutive extinction periods.
The substitution phase was identical to the previously described amphetamine discrimination phase, except for the Friday session, which was decreased to a 4-min extinction session with no food available.

[5] = cited from earlier work
[6] = rat brain, 4 hrs after s.c. injection, Table 1, footnote e
[7] = rat brain, 4 hrs after s.c. injection, Table 1, footnote f

## c1cncc(C2CCCN2)c1 (racemic) [(±) norNIC]
[1]
  evoked [3H]overflow / [3H]DA release: concentration dependent increase
[1]; listed as (+) nornicotine
  evoked [3H]overflow / [3H]DA release: concentration-dependent increase

## CN1CCC[14CH]1c1cccnc1 (racemic) [[^14 C-2']-NIC]
[2]; [6]
  Percent of Total Radiolabel: COT: 60.8 ± 0.63%
  Percent of Total Radiolabel: NIC: 24.2 ± 2.94%
  Percent of Total Radiolabel: Peak A: 0.0 ± 0.0%
  Percent of Total Radiolabel: Peak B: 0.0 ± 0.0%
  Percent of Total Radiolabel: norNIC: 15.1 ± 2.54%
[2]; [7]
  Percent of Total Radiolabel: COT: 62.9 ± 5.27%
  Percent of Total Radiolabel: NIC: 14.2 ± 3.30%
  Percent of Total Radiolabel: Peak A: 0.0 ± 0.0%
  Percent of Total Radiolabel: Peak B: 2.33 ± 0.12%
  Percent of Total Radiolabel: norCOT: 4.15 ± 0.48%
  Percent of Total Radiolabel: norNIC: 16.5 ± 2.04%

## CN1C(=O)C(O)CC1c1cccnc1 (stereo not shown) [3-HydroxyCOT]
[2]; rat, in vivo, sc
  presence as metabolite in brain: not detected

## CO[C@H]1CC=C2CCN3CCC4=C(CC(=O)OC4)[C@]23C1 [DHβE, dihydro-β-erythroidine]
[3]; 10 μM NIC, concentration-dependent
  inhibition of NIC-evoked [3H]overflow: robustly inhibited
[3]; 100 μM
  effect on [3H]DA release itself: evoked the release of [^3 H]DA itself
[3]; high concentrations (100 μM-3 mM) of norNIC
  inhibition of norNIC-evoked [3H]overflow: ineffective in inhibiting
[3]; low concentrations (<100 μM) of norNIC
  inhibition of norNIC-evoked [3H]overflow: effectively inhibited
[3]; norNIC concentration-response curve
  mode of antagonism of norNIC response: competitive

## O=C1CCC(c2cccnc2)N1 (stereo not shown) [NorCOT, norcotinine]
[2]; rat brain, after s.c. radiolabelled NIC
  presence as metabolite in brain: minor CNS metabolite of NIC

## CC(N)Cc1ccccc1 (stereo not drawn) [amphetamine, d-Amphetamine]
[4]; 1 and 2 mg/kg
  substitution for amphetamine training dose: substituting fully; also recorded: substituted fully
[4]; 1 and 2 mg/kg IP, 15 min
  amphetamine-appropriate responding: greater than 80%
[4]; 15 min
  total number of lever presses: dose-related decrease in total number of lever presses
[5]
  cross-sensitization between nicotine and amphetamine: has not been observed

## CCN1CCC[C@H]1CNC(=O)c1c(O)c(Cl)cc(Cl)c1OC [raclopride]
[3]; 1 μM, electrical field stimulation
  effect on overflow evoked by 1 or 3 Hz stimulation: increases overflow
